This is an account of results in US20220168427A1 (Ranok Therapeutics (Hangzhou) Co. Ltd., priority 2019, published 2022).

For orientation: IC50 means the concentration that gives 50% inhibition. Higher therefore signals lower potency.

One series concerns the target HSP90α (Homo sapiens, UniProt P07900). Nature of the series: HSP90α Binding Fluorescent Polarization (FP) Assay. Conditions: competition with FITC-geldanamycin; read-out: HSP90 Binding Potency. In short, it runs like this:
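Competitive FP assay in which compound displaces FITC-geldanamycin from recombinant HSP90α (28 μg/ml before addition) in BSA-containing buffer. Compounds in 3-fold series from 40 μM to 2.0 nM (dilution-plate concentrations), tested in duplicate. Readings after 30, 60 and 120 min at 25 °C; background-subtracted mP fitted to four-parameter log[inhibitor]-response curve.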

A further series deals with MV4-11 cells. The series is described as follows: MV4-11 Cell Cytotoxicity Assay. The format is cell-based, human. The following applies: CCK-8; for IC50 at 72 h: human, MV4-11 cells. From the text: % Inhibition=100−(D−B)/(S−B)*100%.
S: The absorbance of the maximum (cells with DMSO)
B: The absorbance of the minimum (medium with DMSO)

For a further series, the target named is T1, BRD4 (BD1+BD2) (Homo sapiens, UniProt O60885).
T1 construct: 1.8 μg/ml recombinant BRD4 (BD1+BD2 domains) protein
The following applies: read-out: BRD4 Binding Potency.

pIC50: −log10 of the molar value. A value given as a limit tells only on which side of the number the result lay.

For the compound `Cc1cc(-c2nnc(C(=O)NCC(F)(F)F)n2-c2ccc(CN3CCN(CC4CCN(C(=O)C[C@@H]5N=C(c6ccc(Cl)cc6)c6c(sc(C)c6C)-n6c(C)nnc65)CC4)CC3)cc2)c(O)cc1O` [Compound 15, 4-(4-((4-((1-(2-((6S)-4-(4-chlorophenyl)-2,3,9-trimethyl-6H-thieno[3,2-f][1,2,4]triazolo[4,3-a][1,4]diazepin-6-yl)acetyl)piperidin-4-yl)methyl)piperazin-1-yl)methyl)phenyl)-5-(2,4-dihydroxy-5-methylphenyl)-N-(2,2,2-trifluoroethyl)-4H-1,2,4-triazole-3-carboxamide, trifluoroacetic acid], the pIC50 at HSP90α was 6.00 to 7.00; at BRD4 (BD1+BD2), < 6.00. Also, in the series with MV4-11 cells, the IC50 at 72 h is < 100 nM.
`Cc1sc2c(c1C)C(c1ccc(Cl)cc1)=N[C@@H](CC(=O)N1CCC(Cc3ccc(-n4c(O)nnc4-c4cc(C(C)C)c(O)cc4O)cc3)CC1)c1nnc(C)n1-2` [Compound 3, 2-((6S)-4-(4-chlorophenyl)-2,3,9-trimethyl-6H-thieno[3,2-f][1,2,4]triazolo[4,3-a][1,4]diazepin-6-yl)-1-(4-(4-(3-(2,4-dihydroxy-5-isopropylphenyl)-5-hydroxy-4H-1,2,4-triazol-4-yl)benzyl)piperidin-1-yl)ethanone, trifluoroacetic acid]: the values for the pIC50 at HSP90α and at BRD4 (BD1+BD2) were 6.00 to 7.00 and < 6.00, respectively. In addition, the IC50 at 72 h in the series with MV4-11 cells was < 100 nM.
As to `CCc1cc(C(=O)N2Cc3ccc(CN4CCN(C(=O)C[C@@H]5N=C(c6ccc(Cl)cc6)c6c(sc(C)c6C)-n6c(C)nnc65)CC4)cc3C2)c(O)cc1O` [Compound 142, (S)-2-(4-(4-chlorophenyl)-2,3,9-trimethyl-6H-thieno[3,2-f][1,2,4]triazolo[4,3-a][1,4]diazepin-6-yl)-1-(4-((2-(5-ethyl-2,4-dihydroxybenzoyl)isoindolin-5-yl)methyl)piperazin-1-yl)ethan-1-one], the pIC50 at HSP90α and at BRD4 (BD1+BD2) was 6.00 to 7.00 in each case. Further, in the series on MV4-11 cells, the IC50 at 72 h is 100 to 1000 nM.
Consider `Cc1sc2c(c1C)C(c1ccc(Cl)cc1)=N[C@@H](CCNCCOc1ccc(-n3c(O)nnc3-c3cc(C(C)C)c(O)cc3O)cc1)c1nnc(C)n1-2` [Compound 62, (S)-4-(4-(4-(2-((2-(4-(4-chlorophenyl)-2,3,9-trimethyl-6H-thieno[3,2-f][1,2,4]triazolo[4,3-a][1,4]diazepin-6-yl)ethyl)amino)ethoxy)phenyl)-5-hydroxy-4H-1,2,4-triazol-3-yl)-6-isopropylbenzene-1,3-diol, trifluoroacetic acid], for which the pIC50 on HSP90α is 6.00 to 7.00; at BRD4 (BD1+BD2), < 6.00. Besides, the IC50 at 72 h with MV4-11 cells was 100 to 1000 nM.
In the case of `Cc1sc2c(c1C)C(c1ccc(Cl)cc1)=N[C@@H](CC(=O)NCCc1ccc(CN3CCC(Cc4ccc(-n5c(C(=O)NCC(F)(F)F)nnc5-c5cc(C(C)C)c(O)cc5O)cc4)CC3)cc1)c1nnc(C)n1-2` [Compound 95, (S)-4-(4-((1-(4-(2-(2-(4-(4-chlorophenyl)-2,3,9-trimethyl-6H-thieno[3,2-f][1,2,4]triazolo[4,3-a][1,4]diazepin-6-yl)acetamido)ethyl)benzyl)piperidin-4-yl)methyl)phenyl)-5-(2,4-dihydroxy-5-isopropylphenyl)-N-(2,2,2-trifluoroethyl)-4H-1,2,4-triazole-3-carboxamide, trifluoroacetic acid], the pIC50 at HSP90α and on BRD4 (BD1+BD2) was 6.00 to 7.00 in each case. The IC50 at 72 h with MV4-11 cells is < 100 nM.
On to `Cc1sc2c(c1C)C(c1ccc(Cl)cc1)=N[C@@H](CC(=O)NCC1CCN(C(=O)C3CCN(Cc4ccc(-n5c(O)nnc5-c5cc(C(C)C)c(O)cc5O)cc4)CC3)C1)c1nnc(C)n1-2` (stereo partly drawn) [Compound 45, 2-((S)-4-(4-chlorophenyl)-2,3,9-trimethyl-6H-thieno[3,2-f][1,2,4]triazolo[4,3-a][1,4]diazepin-6-yl)-N-((1-(1-(4-(3-(2,4-dihydroxy-5-isopropylphenyl)-5-hydroxy-4H-1,2,4-triazol-4-yl)benzyl)piperidine-4-carbonyl)pyrrolidin-3-yl)methyl)acetamide, trifluoroacetic acid], for which the pIC50 at HSP90α and on BRD4 (BD1+BD2) was > 7.00 in each case. Further, the IC50 at 72 h in the series with MV4-11 cells is < 100 nM.
`Cc1sc2c(c1C)C(c1ccc(Cl)cc1)=N[C@@H](CC(=O)NCCc1ccc(-n3c(O)nnc3-c3cc(C(C)C)c(O)cc3O)cc1)c1nnc(C)n1-2` [Compound 39, 2-((6S)-4-(4-chlorophenyl)-2,3,9-trimethyl-6H-thieno[3,2-f][1,2,4]triazolo[4,3-a][1,4]diazepin-6-yl)-N-(4-(3-(2,4-dihydroxy-5-isopropylphenyl)-5-hydroxy-4H-1,2,4-triazol-4-yl)phenethyl)acetamide]: the pIC50 at HSP90α and on BRD4 (BD1+BD2) was 6.00 to 7.00 each time. In the series on MV4-11 cells, the IC50 at 72 h is < 100 nM.
As to `CCc1cc(-c2nnc(O)n2-c2ccc(CNC(=O)C[C@@H]3N=C(c4ccc(Cl)cc4)c4c(sc(C)c4C)-n4c(C)nnc43)cc2)c(O)cc1O` [Compound 56, 2-((6S)-4-(4-chlorophenyl)-2,3,9-trimethyl-6H-thieno[3,2-f][1,2,4]triazolo[4,3-a][1,4]diazepin-6-yl)-N-(4-(3-(5-ethyl-2,4-dihydroxyphenyl)-5-hydroxy-4H-1,2,4-triazol-4-yl)benzyl)acetamide], the pIC50 at HSP90α and on BRD4 (BD1+BD2) was 6.00 to 7.00 in each case. This compound also gave an IC50 at 72 h in the series on MV4-11 cells of 100 to 1000 nM.
Take `COc1cccc(-c2cc(C(=O)Nc3ccc(-c4ccc(OC5CCN(CC[C@@H]6N=C(c7ccc(Cl)cc7)c7c(sc(C)c7C)-n7c(C)nnc76)CC5)cc4OCCN(C)C)cc3)ccc2OC)c1` [Compound 140]: the pIC50 at HSP90α, with MV4-11 cells (72 hr) and at BRD4 (BD1+BD2) was < 6.00 each time.
As to `Cc1sc2c(c1C)C(c1ccc(Cl)cc1)=N[C@@H](CC(=O)N1CCC(CN3CCN(Cc4ccc(-n5c(O)nnc5-c5cc(C(C)C)c(O)cc5O)cc4F)CC3)CC1)c1nnc(C)n1-2` [Compound 17, (S)-2-(4-(4-chlorophenyl)-2,3,9-trimethyl-6H-thieno[3,2-f][1,2,4]triazolo[4,3-a][1,4]diazepin-6-yl)-1-(4-((4-(4-(3-(2,4-dihydroxy-5-isopropylphenyl)-5-hydroxy-4H-1,2,4-triazol-4-yl)-2-fluorobenzyl)piperazin-1-yl)methyl)piperidin-1-yl)ethan-1-one, trifluoroacetic acid], the pIC50 is 6.00 to 7.00 at HSP90α and < 6.00 on BRD4 (BD1+BD2). In addition, the IC50 at 72 h in the series with MV4-11 cells was < 100 nM.
Take `Cc1sc2c(c1C)C(c1ccc(Cl)cc1)=N[C@@H](CC(=O)N1CCC(CN3CCN(Cc4ccc(-n5c(C(=O)NC(C)C)nnc5-c5ccc(O)cc5O)cc4)CC3)CC1)c1nnc(C)n1-2` [Compound 119, (S)-4-(4-((4-((1-(2-(4-(4-chlorophenyl)-2,3,9-trimethyl-6H-thieno[3,2-f][1,2,4]triazolo[4,3-a][1,4]diazepin-6-yl)acetyl)piperidin-4-yl)methyl)piperazin-1-yl)methyl)phenyl)-5-(2,4-dihydroxyphenyl)-N-isopropyl-4H-1,2,4-triazole-3-carboxamide, trifluoroacetic acid]: the results for the pIC50 on HSP90α and at BRD4 (BD1+BD2) were 6.00 to 7.00 and > 7.00, respectively. The IC50 at 72 h with MV4-11 cells was < 100 nM.
The matching figures for `CCc1cc(-c2nnc(C(=O)NCC(F)(F)F)n2-c2ccc(CN3CCN(CC4CCN(C(=O)C[C@@H]5N=C(c6ccc(Cl)cc6)c6c(sc(C)c6C)-n6c(C)nnc65)CC4)CC3)cc2)c(O)cc1O` [Compound 14, 4-(4-((4-((1-(2-((6S)-4-(4-chlorophenyl)-2,3,9-trimethyl-6H-thieno[3,2-f][1,2,4]triazolo[4,3-a][1,4]diazepin-6-yl)acetyl)piperidin-4-yl)methyl)piperazin-1-yl)methyl)phenyl)-5-(5-ethyl-2,4-dihydroxyphenyl)-N-(2,2,2-trifluoroethyl)-4H-1,2,4-triazole-3-carboxamide, trifluoroacetic acid]: 6.00 to 7.00, < 6.00 and < 100 nM.
In the case of `Cc1sc2c(c1C)C(c1ccc(Cl)cc1)=N[C@@H](CCNCC1CCN(C(=O)C3CCN(Cc4ccc(-n5c(O)nnc5-c5cc(C(C)C)c(O)cc5O)cc4)CC3)C1)c1nnc(C)n1-2` (stereo partly drawn) [Compound 66, (3-(((2-((6S)-4-(4-chlorophenyl)-2,3,9-trimethyl-6H-thieno[3,2-f][1,2,4]triazolo[4,3-a][1,4]diazepin-6-yl)ethyl)amino)methyl)pyrrolidin-1-yl)(1-(4-(3-(2,4-dihydroxy-5-isopropylphenyl)-5-hydroxy-4H-1,2,4-triazol-4-yl)benzyl)piperidin-4-yl)methanone, trifluoroacetic acid], the pIC50 at HSP90α was 6.00 to 7.00; at BRD4 (BD1+BD2) it was < 6.00. This compound also yielded an IC50 at 72 h with MV4-11 cells of 100 to 1000 nM.
Turning to `Cc1sc2c(c1C)C(c1ccc(Cl)cc1)=N[C@@H](CC(=O)Nc1ccc(NC(=O)C3CCN(Cc4ccc(-n5c(O)nnc5-c5cc(C(C)C)c(O)cc5O)cc4)CC3)cc1)c1nnc(C)n1-2` [Compound 72, N-(4-(2-((6S)-4-(4-chlorophenyl)-2,3,9-trimethyl-6H-thieno[3,2-f][1,2,4]triazolo[4,3-a][1,4]diazepin-6-yl)acetamido)phenyl)-1-(4-(3-(2,4-dihydroxy-5-isopropylphenyl)-5-hydroxy-4H-1,2,4-triazol-4-yl)benzyl)piperidine-4-carboxamide, trifluoroacetic acid], the pIC50 at HSP90α and on BRD4 (BD1+BD2) was < 6.00 throughout. Besides, the IC50 at 72 h in the series with MV4-11 cells is < 100 nM.
